Results published in patent US20230159910A1, “DIMETHYLMONOTHIOARSINIC ACID-INDUCED MALIGNANTLY TRANSFORMED CELL LINE OF HUMAN KERATINOCYTES AND USE THEREOF” (SOOCHOW UNIVERSITY, priority 2021, published 2023).

Tests used:
Format in all cases: cell-based, human
HaCaT cells [1] = assay: Cell survival of HaCaT cells by CCK-8 kit (determination of exposure dose); conditions: HaCaT cells treated 24 h with 0-2 μM, FIG. 1
Description: Determination of appropriate exposure dose: After the HaCaT cells were treated with various concentrations (0-2 μM) of DMMTA^v for 24 h, and the cell survival was detected by the CCK-8 kit. The chronic exposure dose of DMMTA^v is determined to be 1.0 μM.

HaCaT cells [2] = assay: MMP-9 secretion after persistent exposure of sub-cultured HaCaT cells; conditions: persistent exposure to 1.0 μM; 21st, 28th and 35th passages; P<0.05; FIG. 2
Description: (§1) Two dishes of normal HaCaT cells (cell passage 0) were prepared. One dish of cells was persistently and chronically exposed to and incubated with Dulbecco's modified Eagle's medium (DMEM) with high glucose with 1.0 μM DMMTAv (containing 100 μg/ml streptomycin, 100 U/ml penicillin and 10% fetal bovine serum), and the medium was refreshed every 24 h. When the cells were grown to a confluency reaching 80%, the cells were sub-cultured and expanded up to the 35th passage. The other dish of cells was persistently and chronically exposed to and normally incubated with Dulbecco's modified Eagle's medium (DMEM) with high glucose (containing 100 μg/ml streptomycin, 100 U/ml penicillin and 10% fetal bovine serum), and the medium was refreshed every 24 h. When the cells were grown to a confluency reaching 80%, the cells were normally sub-cultured and expanded up to the 35th passage and used as the passage control group. One monitoring point is set every 7 passages to detect the cell doubling time of the 0th, 1st, 7th, 14th, 21st, 28th, 35th passages in the exposure group and the passage control group.
(§2) By detecting the changes in the matrix metalloproteinase-9 (MMP-9), the cell doubling time, the cell migration ability and cell anchoring independent growth, whether the cell undergoes malignant transformation is determined. […]

HaCaT cells [3] = assay: Cell doubling time after persistent exposure of sub-cultured HaCaT cells; conditions: persistent exposure to 1.0 μM; 28th, 35th passage; vs passage control, P<0.05; FIG. 3
Description: as §1, §2

HaCaT cells [4] = assay: Cell migration ability by scratch test; conditions: persistent exposure to 1.0 μM, 35th passage, vs passage control, P<0.05, FIG. 4
Description: as §1, §2

HaCaT cells [5] = assay: Cell anchoring independent growth by soft agar colony forming test; conditions: persistent exposure to 1.0 μM, 35th passage, FIG. 5
Description: as §1, §2

HaCaT cells [6] = assay: Malignant transformation of HaCaT cells by long-term exposure; conditions: long-term exposure to 1.0 μM, subculture to 35th passage
Description: as §1, §2

C[As](C)(O)=S [DMMTA^v, dimethylmonothioarsinic acid]
dose with the highest cell survival rate (chronic exposure dose) (HaCaT cells [1]): 1.0 µM | secretion of MMP-9 compared with the passage control group (HaCaT cells [2]): significantly increased | cell doubling time (HaCaT cells [3]): significantly reduced | cell migration ability (HaCaT cells [4]): significantly enhanced | colony formation in soft agar (HaCaT cells [5]): can form obvious colonies in soft agar | colony formation rate compared with the passage control group cells (HaCaT cells [5]; soft agar, P<0.05): significantly higher | induction of malignant transformation of HaCaT cells (HaCaT cells [6]): can induce HaCaT cells to undergo malignant transformation
